The record followed here is patent US8546343B2, “Aminoglycoside antibiotics targeting bacterial 16S ribosomal RNA” (Eidgenoessische Technische Hochschule Zurich, priority 2007, dated 2013).

Assay type in all cases: cell-based, Mycobacterium smegmatis
Assay [1] has as its system M. smegmatis ΔrrnB 1491C (16S rRNA position 1491 C, eukaryotic mitochondrial ribosome). The assay can be described thus: MIC, recombinant M. smegmatis with mutant ribosomes 1491C. To be noted: M. smegmatis ΔrrnB 1491C mutant ribosomes; 72 h at 37° C. The text has this:
(§1) The strain used for introduction/selection of mutational alterations was a genetically modified derivative of Mycobacterium smegmatis carrying a single functional chromosomal rRNA operon (Sander et al. Mol. Microbiol. 1996, 22: 841-848). This strain, termed M. smegmatis rrn^−, allowed for the selection of mutational rRNA gene alterations using a plasmid carrying the rRNA gene with the respective mutational alteration.)
(§2) The rRNA gene carried on the plasmid encodes either the complete rRNA operon (Prammananan et al. Antimicrob. Agents Chemother. 1999, 43: 447-453) or a non-functional rRNA gene fragment of approximately 1.0 kb (Pfister et al. Antimicrob. Agents Chemother. 2003, 47: 1496-1502). PCR-mutagenesis in vitro was used to generate the mutagenized rRNA gene fragment. In the case of a partial rRNA gene fragment the mutagenized rRNA gene fragment was cloned into vectors pMV261 or pMV361 (Sander et al. Mol. Microbiol. 2002, 46: 1295-1304; Pfister et al. Antimicrob. Agents Chemother. 2003, 47: 1496-1502) to result in vectors carrying a partial rRNA gene fragment of approximately 1.0 kb with the mutational alteration introduced. In the case of plasmids carrying the complete rRNA operon the mutagenized rRNA gene fragment obtained by PCR was cloned into vectors pMV361 rRNA or pMV261 rRNA using appropriate restriction sites (Prammananan et al. Antimicrob. Agents Chemother. 1999, 43: 447-453). Vectors pMV361 rRNA and pMV261 rRNA carried a complete copy of the rRNA operon from M. smegmatis (Sander et al. Mol. Microbiol. 1997, 26: 469-480). Introduction of mutations into the plasmid encoded rRNA was confirmed by sequencing.
(§3) The single rRNA allelic derivative of M. smegmatis, i.e. M. smegmatis rrn, was used for transformation of the plasmids. The strain was made electro-competent and transformed according to standard techniques and as described previously (Sander et al. Mol. Microbiol. 1997, 26: 469-484). Following primary selection, the plasmid-encoded mutational rRNA gene alteration was transferred into the single chromosomal rRNA operon by means of RecA-mediated homologous recombination (Prammananan at al. Antimicrob. Agents Chemother. 1999, 43: 447-453). Introduction of the mutational rRNA gene alteration into the single functional chromosomal rRNA operon by gene conversion was confirmed by sequence determination.
(§4) Ribosomal drug susceptibility was studied by determining the minimal inhibitory concentrations, as described in detail in Pfister et al. 2003 and 2005 (see above).
(§5) The recombinants carrying the respective mutational alterations in the functional rRNA operon were colony-purified and subjected to determinations of minimal inhibitory concentrations (MIC) to determine ribosomal drug susceptibility. Cultures from single colonies were grown in LB medium supplemented with 0.05% Tween 80 and used for MIC tests in a microtiter plate format. Starting cultures contained 200 μl of bacterial cells at an optical density of 0.025 at 600 nm, and the respective drug was added in twofold series of dilution.
(§6) Key nucleotides which distinguish the prokaryotic from the eukaryotic decoding site are 16S rRNA positions 1408 (bacterial ribosome: A, eukaryotic cytosolic ribosomes: G) and 1491 (bacterial ribosomes: G, eukaryotic cytosolic ribosomes: A, eukaryotic mitochondrial ribosome: C).

Assay [2] concerns M. smegmatis ΔrrnB 1408G (16S rRNA position 1408 G, eukaryotic cytosolic ribosomes). The assay can be described thus: MIC, recombinant M. smegmatis with mutant ribosomes 1408G. The note with it: M. smegmatis ΔrrnB 1408G mutant ribosomes; 72 h at 37° C.
Text: as §1, §2, §3, §4, §5, §6

For assay [3], the system named is M. smegmatis ΔrrnB 1491A (16S rRNA position 1491 A, eukaryotic cytosolic ribosomes). The assay can be described thus: MIC, recombinant M. smegmatis with mutant ribosomes 1491A. The note with it: M. smegmatis ΔrrnB 1491A mutant ribosomes; 72 h at 37° C.
Text: as §1, §2, §3, §4, §5, §6

The subject of assay [4] is M. smegmatis ΔrrnB (bacterial ribosomes). The assay can be described thus: MIC, recombinant M. smegmatis with bacterial (wild-type) ribosomes. The note with it: 72 h at 37° C.
Text: as §1, §2, §3, §4, §5, §6

For `COc1ccc([C@@H]2OC[C@H]3O[C@H](O[C@H]4[C@H](O[C@@H]5O[C@H](CO)[C@@H](O[C@H]6O[C@@H](CN)[C@@H](O)[C@H](O)[C@H]6N)[C@H]5O)[C@@H](O)[C@H](N)C[C@@H]4N)[C@H](N)[C@@H](O)[C@@H]3O2)cc1` [Compound 5.2, 4′,6′-O-p-Methoxybenzylideneparomomycin], the “minimal inhibitory concentrations ΔrrnB 1491C” value in assay [1] is greater than 512 µg/mL. Also, the “minimal inhibitory concentrations ΔrrnB 1408G” value in assay [2] is greater than 512 µg/mL. The “minimal inhibitory concentrations ΔrrnB 1491A” value in assay [3] was greater than 512 µg/mL. In addition, in assay [4], the “minimal inhibitory concentrations ΔrrnB” value stood at 4 µg/mL.

Take `CC(=O)O.CC(=O)O.CC(=O)O.CC(=O)O.COc1cccc(C2OCC3OC(OC4C(N)CC(N)C(O)C4OC4OC(CO)C(OC5OC(CN)C(O)C(O)C5N)C4O)C(N)C(O)C3O2)c1` (stereo not drawn) [Compound 5.3, 4′,6′-O-m-Methoxybenzylideneparomomycin tetraacetate]: in assay [1], the “minimal inhibitory concentrations ΔrrnB 1491C” value was greater than 512 µg/mL. For the same compound, the “minimal inhibitory concentrations ΔrrnB 1408G” value in assay [2] fell in the range of 256 to 512 µg/mL. The “minimal inhibitory concentrations ΔrrnB 1491A” value in assay [3] came to 512 µg/mL. Moreover, in assay [4], the “minimal inhibitory concentrations ΔrrnB” value lay within 4 to 8 µg/mL.

Consider `COc1ccccc1[C@@H]1OC[C@H]2O[C@H](O[C@H]3[C@H](O[C@@H]4O[C@H](CO)[C@@H](O[C@H]5O[C@@H](CN)[C@@H](O)[C@H](O)[C@H]5N)[C@H]4O)[C@@H](O)[C@H](N)C[C@@H]3N)[C@H](N)[C@@H](O)[C@@H]2O1` [Compound 5.4, 4,6′-O-o-Methoxybenzylideneparomomycin], for which the “minimal inhibitory concentrations ΔrrnB 1491C” value in assay [1] was greater than 512 µg/mL. Further, the “minimal inhibitory concentrations ΔrrnB 1408G” value in assay [2] was greater than 512 µg/mL. Moreover, in assay [3], the “minimal inhibitory concentrations ΔrrnB 1491A” value was greater than 512 µg/mL. Also, in assay [4], the “minimal inhibitory concentrations ΔrrnB” value was 8 to 16 µg/mL.

With `COc1ccc(OC)c(C2OC[C@H]3O[C@H](O[C@H]4[C@H](O[C@@H]5O[C@H](CO)[C@@H](O[C@H]6O[C@@H](CN)[C@@H](O)[C@H](O)[C@H]6N)[C@H]5O)[C@@H](O)[C@H](N)C[C@@H]4N)[C@H](N)[C@@H](O)[C@@H]3O2)c1` (stereo partly drawn) [Compound 5.5, 4′,6′-O-2,5-Dimethoxybenzylideneparomomycin], the “minimal inhibitory concentrations ΔrrnB 1491C” value in assay [1] is greater than 512 µg/mL. Moreover, the “minimal inhibitory concentrations ΔrrnB 1408G” value in assay [2] is “≧512 μg/ml”. Moreover, the “minimal inhibitory concentrations ΔrrnB 1491A” value in assay [3] was greater than 512 µg/mL. Besides, in assay [4], the “minimal inhibitory concentrations ΔrrnB” value lay within 4 to 8 µg/mL.

With `NC[C@@H]1O[C@H](O[C@H]2[C@@H](O)[C@H](O[C@@H]3[C@@H](O)[C@H](N)C[C@H](N)[C@H]3O[C@H]3O[C@@H]4CO[C@@H](c5ccc([N+](=O)[O-])cc5)O[C@H]4[C@H](O)[C@H]3N)O[C@@H]2CO)[C@H](N)[C@@H](O)[C@@H]1O` [Compound 5.6, 4′,6′-O-p-Nitrobenzylideneparomomycin], the “minimal inhibitory concentrations ΔrrnB 1491C” value in assay [1] is greater than 512 µg/mL. Besides, in assay [2], the “minimal inhibitory concentrations ΔrrnB 1408G” value amounted to 512 µg/mL. In assay [3], the “minimal inhibitory concentrations ΔrrnB 1491A” value is greater than 512 µg/mL. Besides, the “minimal inhibitory concentrations ΔrrnB” value in assay [4] amounted to 4 µg/mL.

For `CC(=O)O.CC(=O)O.CC(=O)O.NC[C@@H]1O[C@H](O[C@H]2[C@@H](O)[C@H](O[C@@H]3[C@@H](O)[C@H](N)C[C@H](N)[C@H]3O[C@H]3O[C@@H]4COC(c5cccc([N+](=O)[O-])c5)O[C@H]4[C@H](O)[C@H]3N)O[C@@H]2CO)[C@H](N)[C@@H](O)[C@@H]1O` (stereo partly drawn) [Compound 5.7, 4,6′-O-m-Nitrobenzylideneparomomycin triacetate], the “minimal inhibitory concentrations ΔrrnB 1491C” value in assay [1] was greater than 512 µg/mL. Further, in assay [2], the “minimal inhibitory concentrations ΔrrnB 1408G” value lay in the range of 256 to 512 µg/mL. In assay [3], the “minimal inhibitory concentrations ΔrrnB 1491A” value was found to be 256 µg/mL. In assay [4], the “minimal inhibitory concentrations ΔrrnB” value fell in the range of 2 to 4 µg/mL.

As to `NC[C@@H]1O[C@H](O[C@H]2[C@@H](O)[C@H](O[C@@H]3[C@@H](O)[C@H](N)C[C@H](N)[C@H]3O[C@H]3O[C@@H]4CO[C@@H](c5cc(Cl)cc(Cl)c5)O[C@H]4[C@H](O)[C@H]3N)O[C@@H]2CO)[C@H](N)[C@@H](O)[C@@H]1O` [Compound 5.9, 4,6′-O-3,5-Dichlorobenzylideneparomomycin], the “minimal inhibitory concentrations ΔrrnB 1491C” value in assay [1] was 128 µg/mL. For the same compound, the “minimal inhibitory concentrations ΔrrnB 1408G” value in assay [2] was 128 to 256 µg/mL. In assay [3], the “minimal inhibitory concentrations ΔrrnB 1491A” value was in the range of 128 to 256 µg/mL. Besides, the “minimal inhibitory concentrations ΔrrnB” value in assay [4] was found to be 4 µg/mL.

Take `N#Cc1ccc([C@@H]2OC[C@H]3O[C@H](O[C@H]4[C@H](O[C@@H]5O[C@H](CO)[C@@H](O[C@H]6O[C@@H](CN)[C@@H](O)[C@H](O)[C@H]6N)[C@H]5O)[C@@H](O)[C@H](N)C[C@@H]4N)[C@H](N)[C@@H](O)[C@@H]3O2)cc1` [Compound 5.10, 4,6′-O-p-Cyanobenzylideneparomomycin]: the “minimal inhibitory concentrations ΔrrnB 1491C” value in assay [1] is greater than 512 µg/mL. Also, the “minimal inhibitory concentrations ΔrrnB 1408G” value in assay [2] was greater than 512 µg/mL. In assay [3], the “minimal inhibitory concentrations ΔrrnB 1491A” value was greater than 512 µg/mL. For the same compound, the “minimal inhibitory concentrations ΔrrnB” value in assay [4] was in the range of 16 to 32 µg/mL.

With `NC[C@@H]1O[C@H](O[C@H]2[C@@H](O)[C@H](O[C@@H]3[C@@H](O)[C@H](N)C[C@H](N)[C@H]3O[C@H]3O[C@@H]4CO[C@@H](c5ccc(-c6ccccc6)cc5)O[C@H]4[C@H](O)[C@H]3N)O[C@@H]2CO)[C@H](N)[C@@H](O)[C@@H]1O` [Compound 5.11, 4′,6′-O-p-Phenylbenzylideneparomomycin], the “minimal inhibitory concentrations ΔrrnB 1491C” value in assay [1] is 64 µg/mL. Besides, the “minimal inhibitory concentrations ΔrrnB 1408G” value in assay [2] is 128 µg/mL. In addition, the “minimal inhibitory concentrations ΔrrnB 1491A” value in assay [3] is 64 to 128 µg/mL. Moreover, the “minimal inhibitory concentrations ΔrrnB” value in assay [4] worked out at 64 µg/mL.

`NC[C@@H]1O[C@H](O[C@H]2[C@@H](O)[C@H](O[C@@H]3[C@@H](O)[C@H](N)C[C@H](N)[C@H]3O[C@H]3O[C@@H]4CO[C@@H](c5ccc(F)cc5)O[C@H]4[C@H](O)[C@H]3N)O[C@@H]2CO)[C@H](N)[C@@H](O)[C@@H]1O` [Compound 5.12, 4,6′-O-p-Fluorobenzylideneparomomycin]: the “minimal inhibitory concentrations ΔrrnB 1491C” value in assay [1] is greater than 512 µg/mL. For the same compound, the “minimal inhibitory concentrations ΔrrnB 1408G” value in assay [2] is greater than 512 µg/mL. Also, the “minimal inhibitory concentrations ΔrrnB 1491A” value in assay [3] was greater than 512 µg/mL. Besides, the “minimal inhibitory concentrations ΔrrnB” value in assay [4] fell in the range of 2 to 4 µg/mL.

As for `COc1cc(OC)cc([C@@H]2OC[C@H]3O[C@H](O[C@H]4[C@H](O[C@@H]5O[C@H](CO)[C@@H](O[C@H]6O[C@@H](CN)[C@@H](O)[C@H](O)[C@H]6N)[C@H]5O)[C@@H](O)[C@H](N)C[C@@H]4N)[C@H](N)[C@@H](O)[C@@H]3O2)c1` [Compound 5.13, 4′,6′-O-3,5-Dimethoxybenzylideneparomomycin], the “minimal inhibitory concentrations ΔrrnB 1491C” value in assay [1] was greater than 512 µg/mL. Moreover, the “minimal inhibitory concentrations ΔrrnB 1408G” value in assay [2] is greater than 512 µg/mL. Also, the “minimal inhibitory concentrations ΔrrnB 1491A” value in assay [3] was greater than 512 µg/mL. Besides, in assay [4], the “minimal inhibitory concentrations ΔrrnB” value turned out to be 32 µg/mL.

Regarding `COc1cc([C@@H]2OC[C@H]3O[C@H](O[C@H]4[C@H](O[C@@H]5O[C@H](CO)[C@@H](O[C@H]6O[C@@H](CN)[C@@H](O)[C@H](O)[C@H]6N)[C@H]5O)[C@@H](O)[C@H](N)C[C@@H]4N)[C@H](N)[C@@H](O)[C@@H]3O2)cc(OC)c1OC` [Compound 5.14, 4′,6′-O-3,4,5-Trimethoxybenzylideneparomomycin], in assay [1], the “minimal inhibitory concentrations ΔrrnB 1491C” value is greater than 512 µg/mL. Besides, the “minimal inhibitory concentrations ΔrrnB 1408G” value in assay [2] was greater than 512 µg/mL. Besides, the “minimal inhibitory concentrations ΔrrnB 1491A” value in assay [3] was greater than 512 µg/mL. The “minimal inhibitory concentrations ΔrrnB” value in assay [4] lay in the range of 32 to 64 µg/mL.
